Structures can show the parent of a compound that is named as a salt.
Legend:
[1] = system: choline acetyltransferase (ChAT); test: ChAT activity in hippocampus and frontal cortex homogenates of ovariectomized (OVX) rats, radio-labelled assay of acetylcholine bio-synthesis; assay type: in vivo, female Sprague-Dawley rats; settings: dosed daily s.c. or oral gavage for 10 days; for levels of ChAT, difference from the sham controls: same doses as E1; for levels of ChAT versus the OVX controls: tamoxifen 3 or 10 mg/kg/day, raloxifene hydrochloride 3 mg/kg/day, estradiol benzoate 0.03 or 0.3 mg/kg/day
Protocol: Forty female Sprague-Dawley rats (weight range of 300 to 325 g, six months old) are obtained from Harlan. The animals are either bilaterally ovariectomized (OVX) or exposed to a Sham surgical procedure, and then shipped after about one week. Upon arrival, they are housed in metal hanging cages in groups of 3 or 4 per cage and have ad libitum access to food and water for one week. Room temperature is maintained at 22.20±1.7° C. with a minimum relative humidity of 40%. The photoperiod in the room is 12 hours light and 12 hours dark.
The animals are dosed daily by subcutaneous injection or oral gavage with either tamoxifen, at 3 mg/kg/day or 10 mg/kg/day in a vehicle containing 10% cyclodextrin, raloxifene hydrochloride, at 3 mg/kg/day in a vehicle containing 10% cyclodextrin, estradiol benzoate at 0.03 or 0.3 mg/kg/day, or vehicle control. Animals were treated for 10 days. There are twenty animals per each dosing regimen. At the appropriate time intervals, the animals are sacrificed and their brains dissected. The particular portions of the brains are homogenized and assayed. Homogenates from the hippocampus and frontal cortex were processed and determination of ChAT activity was made by a radio-labelled assay of the bio-synthesis of acetylcholine. This procedure may be found in Schoepp et al., J. Neural Transmiss., 78:183-193, 1989, the teachings of which are incorporated by reference.

[2] = Amelioration of Alzheimer's disease in post-menopausal women after chronic administration; assay type: in vivo, human; settings: post-menopausal women with Alzheimer's disease; 20 mg per day, oral, 2-12 months
Description: Thus, the current invention provides methods for the treatment and prophylaxis of syndromes related to the loss of memory, learning, and cognitive function, often seen in women who are estrogen deprived, especially post-menopausal women. An example of such a syndrome is senile dementia of the Alzheimer's type. Beneficial effects, such as a decrease in memory loss, associated with administration of a compound of this invention become apparent after chronic administration.

[3] = Prophylactic use: cognitive and memory function by standard tests in peri- or post-menopausal women; assay type: in vivo, human; settings: 20 mg/day, oral, 1-5 years
Protocol: The methods of the present invention may also be employed in a prophylactic modality. […] Following the establishment of this baseline, the women are administered tamoxifen at 20 mg/day, via the oral route, for a period 1-5 years.

[4] = system: ChAT; settings: rats; literature (Luine et al. 1980, Luine 1985, Singh et al. 1994); cited from earlier work

Compound	levels of ChAT, difference from the sham controls [1]	levels of ChAT versus the OVX controls [1]	effect on Alzheimer's disease [2]	cognitive and memory functions relative to matched patients given placebo [3]	level of acetylcholine / ChAT in the hippocampus [4]
C[C@]12CC[C@@H]3c4ccc(OC(=O)c5ccccc5)cc4CC[C@H]3[C@@H]1CC[C@@H]2O [estradiol benzoate]	insignificant difference	significantly (p<0.01) increased levels of ChAT	–	–	–
O=C(c1ccc(OCCN2CCCCC2)cc1)c1c(-c2ccc(O)cc2)sc2cc(O)ccc12 [raloxifene hydrochloride]	insignificant difference	significantly (p<0.01) increased levels of ChAT	–	–	–
CC/C(=C(\c1ccccc1)c1ccc(OCCN(C)C)cc1)c1ccccc1 [tamoxifen]	insignificant difference	significantly (p<0.05) increased levels of ChAT	amelioration of their disease	decrease in loss of these functions	–
estrogen	–	–	–	–	increases the level of acetylcholine by up-regulating ChAT
